Laboratory results reported in ChEMBL document CHEMBL5352410, “Discovery of novel selenium-containing azole derivatives as antifungal agents by exploiting the hydrophobic cleft of CYP51” (Eur J Med Chem, 2022).
Values after ≈ are worked out from the molar mass of the structure shown.

What was measured:
[1] = test system: Candida albicans; test: Antifungal activity against FCZ-resistant Candida albicans 904 by CLSI based broth microdilution method; type: functional
[2] = test system: Candida albicans; test: Antifungal activity against FCZ-resistant Candida albicans 632 by CLSI based broth microdilution method; type: functional
[3] = test system: Cryptococcus neoformans; test: Antifungal activity against Cryptococcus neoformans by CLSI based broth microdilution method; type: functional
[4] = test system: Candida albicans; test: Antifungal activity against FCZ-resistant Candida albicans 901 by CLSI based broth microdilution method; type: functional
[5] = test system: Candida albicans; test: Fungicidal activity against FCZ-resistant Candida albicans 17#; type: functional
[6] = test system: Candida albicans; test: Fungicidal activity against FCZ-resistant Candida albicans 904; type: functional
[7] = test system: Candida albicans; test: Antifungal activity against FCZ-resistant Candida albicans 17# by CLSI based broth microdilution method; type: functional
[8] = test system: Aspergillus fumigatus; test: Antifungal activity against Aspergillus fumigatus by CLSI based broth microdilution method; type: functional
[9] = test system: [Candida] zeylanoides; test: Antifungal activity against Candida zeylanoides by CLSI based broth microdilution method; type: functional; conditions: Dujonia zeylanoides
[10] = test system: Pichia kudriavzevii; test: Antifungal activity against Pichia kudriavzevii by CLSI based broth microdilution method; type: functional
[11] = test system: Nakaseomyces glabratus; test: Antifungal activity against Candida glabrata by CLSI based broth microdilution method; type: functional
[12] = test system: Candida albicans; test: Antifungal activity against Candida albicans by CLSI based broth microdilution method; type: functional
[13] = test system: Candida albicans; test: Fungicidal activity against FCZ-resistant Candida albicans 632; type: functional
[14] = test system: Candida albicans; test: Fungicidal activity against FCZ-resistant Candida albicans CaR; type: functional
[15] = test system: Candida albicans; test: Antifungal activity against Candida albicans sc5314 by CLSI based broth microdilution method; type: functional
[16] = test system: Candida parapsilosis; test: Antifungal activity against Candida parapsilosis by CLSI based broth microdilution method; type: functional; conditions: Lodderomyces parapsilosis
[17] = test system: Candida albicans; test: Antifungal activity against FCZ-resistant Candida albicans CaR by CLSI based broth microdilution method; type: functional
[18] = test system: Candida albicans; test: Fungicidal activity against FCZ-resistant Candida albicans 901; type: functional
[19] = test system: Candida albicans; test: Fungicidal activity against Candida albicans sc5314; type: functional
[20] = test system: Candida albicans; test: Fungicidal activity against Candida albicans; type: functional
[21] = test system: Candida albicans; test: Antibiofilm activity against Candida albicans SC5314 assessed as sessile minimum inhibitory concentration measured after 24 hrs by XTT assay; type: functional
[22] = test system: Candida albicans; test: Antibiofilm activity against Candida albicans SC5314 assessed as sessile minimum inhibitory concentration measured after 1.5 hrs by XTT assay; type: functional
[23] = Cytotoxicity against human MDA-MB-231 cells by MTT assay; type: toxicity, cell-based
[24] = test system: Candida albicans; test: Antibiofilm activity against Candida albicans SC5314 assessed as sessile minimum inhibitory concentration measured after 6 hrs by XTT assay; type: functional
[25] = test system: Candida albicans; test: Antibiofilm activity against Candida albicans SC5314 assessed as sessile minimum inhibitory concentration measured after 3 hrs by XTT assay; type: functional
[26] = test system: Candida albicans; test: Antibiofilm activity against Candida albicans CPCC400616 assessed as sessile minimum inhibitory concentration measured after 3 hrs by XTT assay; type: functional
[27] = Cytotoxicity against human HL-60 cells by MTT assay; type: toxicity, cell-based
[28] = test system: Candida albicans; test: Antibiofilm activity against Candida albicans CPCC400616 assessed as sessile minimum inhibitory concentration measured after 1.5 hrs by XTT assay; type: functional
[29] = Metabolic stability in mouse liver microsome assessed as half life; type: ADME; conditions: liver microsomes
[30] = Cytotoxicity against human PC-3 cells by MTT assay; type: toxicity, cell-based
[31] = test system: Candida albicans; test: Antibiofilm activity against Candida albicans CPCC400616 assessed as sessile minimum inhibitory concentration measured after 24 hrs by XTT assay; type: functional
[32] = test system: Candida albicans; test: Antibiofilm activity against Candida albicans CPCC400616 assessed as sessile minimum inhibitory concentration measured after 6 hrs by XTT assay; type: functional
[33] = Metabolic stability in mouse liver microsome assessed as clearance; type: ADME; conditions: liver microsomes, read-out: CLH

## Fc1ccc(C(Cn2ccnc2)[Se]C(Cn2ccnc2)c2ccc(F)cc2)cc1 (centres undefined)
[1]
  MIC: 32 µg/mL (≈ 70 µM)
[2]
  MIC: 4 µg/mL (≈ 8.75 µM)
[3]
  MIC: 64 µg/mL (≈ 140 µM)
[4]
  MIC: 16 µg/mL (≈ 35 µM)
[5]
  MFC: > 64 µg/mL
[6]
  MFC: > 64 µg/mL
[7]
  MIC: 4 µg/mL (≈ 8.75 µM)
[8]
  MIC: > 64 µg/mL
[9]
  MIC: 4 µg/mL (≈ 8.75 µM)
[10]
  MIC: 32 µg/mL (≈ 70 µM)
[11]
  MIC: 64 µg/mL (≈ 140 µM)
[12]
  MIC: 4 µg/mL (≈ 8.75 µM)
[13]
  MFC: 16 µg/mL (≈ 35 µM)
[14]
  MFC: > 64 µg/mL
[15]
  MIC: 2 µg/mL (≈ 4.37 µM)
[16]
  MIC: 16 µg/mL (≈ 35 µM)
[17]
  MIC: 2 µg/mL (≈ 4.37 µM)
[18]
  MFC: 64 µg/mL (≈ 140 µM)
[19]
  MFC: 16 µg/mL (≈ 35 µM)
[20]
  MFC: 64 µg/mL (≈ 140 µM)

## Cc1ccc(C(Cn2ccnc2)[Se][Se]C(Cn2ccnc2)c2ccc(C)cc2)cc1 (centres undefined)
[21]
  MIC50: 2 µg/mL (≈ 3.78 µM)
  MIC80: 4 µg/mL (≈ 7.57 µM)
[22]
  MIC50: 1 µg/mL (≈ 1.89 µM)
  MIC80: 4 µg/mL (≈ 7.57 µM)
[1]
  MIC: 4 µg/mL (≈ 7.57 µM)
[2]
  MIC: 4 µg/mL (≈ 7.57 µM)
[4]
  MIC: 4 µg/mL (≈ 7.57 µM)
[5]
  MFC: > 64 µg/mL
[6]
  MFC: 8 µg/mL (≈ 15.1 µM)
[23]
  IC50: 5.04 µM
[7]
  MIC: 32 µg/mL (≈ 60.6 µM)
[24]
  MIC50: 2 µg/mL (≈ 3.78 µM)
  MIC80: 8 µg/mL (≈ 15.1 µM)
[25]
  MIC50: 2 µg/mL (≈ 3.78 µM)
  MIC80: 4 µg/mL (≈ 7.57 µM)
[26]
  MIC50: 2 µg/mL (≈ 3.78 µM)
  MIC80: 8 µg/mL (≈ 15.1 µM)
[27]
  IC50: 14.7 µM
[28]
  MIC50: 1 µg/mL (≈ 1.89 µM)
  MIC80: 8 µg/mL (≈ 15.1 µM)
[29]
  half-life: 21.2 min
[13]
  MFC: 8 µg/mL (≈ 15.1 µM)
[30]
  IC50: 7.43 µM
[14]
  MFC: > 64 µg/mL
[31]
  MIC50: 4 µg/mL (≈ 7.57 µM)
  MIC80: 128 µg/mL (≈ 242 µM)
[17]
  MIC: 2 µg/mL (≈ 3.78 µM)
[32]
  MIC50: 1 µg/mL (≈ 1.89 µM)
  MIC80: 32 µg/mL (≈ 60.6 µM)
[18]
  MFC: 8 µg/mL (≈ 15.1 µM)
[33]
  CLint scaled: 68.9 mL/min/kg
[19]
  MFC: 8 µg/mL (≈ 15.1 µM)
[20]
  MFC: 64 µg/mL (≈ 121 µM)

## c1ccc(C(Cn2ccnc2)[Se][Se]C(Cn2ccnc2)c2ccccc2)cc1 (centres undefined)
[1]
  MIC: 8 µg/mL (≈ 16 µM)
[2]
  MIC: 8 µg/mL (≈ 16 µM)
[4]
  MIC: 4 µg/mL (≈ 7.99 µM)
[5]
  MFC: > 64 µg/mL
[6]
  MFC: 8 µg/mL (≈ 16 µM)
[7]
  MIC: > 64 µg/mL
[13]
  MFC: 16 µg/mL (≈ 32 µM)
[14]
  MFC: > 64 µg/mL
[17]
  MIC: 2 µg/mL (≈ 4 µM)
[18]
  MFC: 8 µg/mL (≈ 16 µM)
[19]
  MFC: 16 µg/mL (≈ 32 µM)
[20]
  MFC: 64 µg/mL (≈ 128 µM)

## c1ccc(C(Cn2ccnc2)[Se]C(Cn2ccnc2)c2ccccc2)cc1 (centres undefined)
[1]
  MIC: 4 µg/mL (≈ 9.49 µM)
[2]
  MIC: 8 µg/mL (≈ 19 µM)
[3]
  MIC: 64 µg/mL (≈ 152 µM)
[4]
  MIC: 8 µg/mL (≈ 19 µM)
[5]
  MFC: > 64 µg/mL
[6]
  MFC: 8 µg/mL (≈ 19 µM)
[7]
  MIC: 0.5 µg/mL (≈ 1.19 µM)
[8]
  MIC: > 64 µg/mL
[9]
  MIC: 4 µg/mL (≈ 9.49 µM)
[10]
  MIC: 16 µg/mL (≈ 38 µM)
[11]
  MIC: 16 µg/mL (≈ 38 µM)
[12]
  MIC: 8 µg/mL (≈ 19 µM)
[13]
  MFC: 16 µg/mL (≈ 38 µM)
[14]
  MFC: > 64 µg/mL
[15]
  MIC: 4 µg/mL (≈ 9.49 µM)
[16]
  MIC: 4 µg/mL (≈ 9.49 µM)
[17]
  MIC: 4 µg/mL (≈ 9.49 µM)
[18]
  MFC: 16 µg/mL (≈ 38 µM)
[19]
  MFC: 8 µg/mL (≈ 19 µM)
[20]
  MFC: 64 µg/mL (≈ 152 µM)

## Fc1ccc(C(Cn2ccnc2)[Se]C(Cn2ccnc2)c2ccc(F)cc2F)c(F)c1 (centres undefined)
[21]
  MIC50: 1 µg/mL (≈ 2.03 µM)
  MIC80: 4 µg/mL (≈ 8.11 µM)
[22]
  MIC50: 1 µg/mL (≈ 2.03 µM)
  MIC80: 4 µg/mL (≈ 8.11 µM)
[1]
  MIC: 8 µg/mL (≈ 16.2 µM)
[2]
  MIC: 4 µg/mL (≈ 8.11 µM)
[3]
  MIC: 16 µg/mL (≈ 32.4 µM)
[4]
  MIC: 4 µg/mL (≈ 8.11 µM)
[5]
  MFC: > 64 µg/mL
[6]
  MFC: 8 µg/mL (≈ 16.2 µM)
[23]
  IC50: 8.26 µM
[7]
  MIC: 1 µg/mL (≈ 2.03 µM)
[8]
  MIC: > 64 µg/mL
[24]
  MIC50: 4 µg/mL (≈ 8.11 µM)
  MIC80: 16 µg/mL (≈ 32.4 µM)
[9]
  MIC: 2 µg/mL (≈ 4.05 µM)
[10]
  MIC: 32 µg/mL (≈ 64.9 µM)
[25]
  MIC50: 1 µg/mL (≈ 2.03 µM)
  MIC80: 4 µg/mL (≈ 8.11 µM)
[26]
  MIC50: 1 µg/mL (≈ 2.03 µM)
  MIC80: 8 µg/mL (≈ 16.2 µM)
[27]
  IC50: 4.61 µM
[11]
  MIC: 64 µg/mL (≈ 130 µM)
[12]
  MIC: 4 µg/mL (≈ 8.11 µM)
[28]
  MIC50: 0.25 µg/mL (≈ 0.507 µM)
  MIC80: 2 µg/mL (≈ 4.05 µM)
[29]
  half-life: 9.8 min
[13]
  MFC: 8 µg/mL (≈ 16.2 µM)
[30]
  IC50: 1.45 µM
[14]
  MFC: > 64 µg/mL
[31]
  MIC50: 4 µg/mL (≈ 8.11 µM)
  MIC80: 64 µg/mL (≈ 130 µM)
[15]
  MIC: 2 µg/mL (≈ 4.05 µM)
[16]
  MIC: 8 µg/mL (≈ 16.2 µM)
[17]
  MIC: 2 µg/mL (≈ 4.05 µM)
[32]
  MIC50: 2 µg/mL (≈ 4.05 µM)
  MIC80: 16 µg/mL (≈ 32.4 µM)
[18]
  MFC: 8 µg/mL (≈ 16.2 µM)
[33]
  CLint scaled: 558 mL/min/kg
[19]
  MFC: 8 µg/mL (≈ 16.2 µM)
[20]
  MFC: 32 µg/mL (≈ 64.9 µM)

## Clc1ccc(C(Cn2ccnc2)[Se]C(Cn2ccnc2)c2ccc(Cl)cc2Cl)c(Cl)c1 (centres undefined)
[1]
  MIC: 16 µg/mL (≈ 28.6 µM)
[2]
  MIC: 16 µg/mL (≈ 28.6 µM)
[3]
  MIC: 64 µg/mL (≈ 114 µM)
[4]
  MIC: 64 µg/mL (≈ 114 µM)
[5]
  MFC: > 64 µg/mL
[6]
  MFC: 32 µg/mL (≈ 57.2 µM)
[7]
  MIC: 2 µg/mL (≈ 3.58 µM)
[8]
  MIC: > 64 µg/mL
[9]
  MIC: 8 µg/mL (≈ 14.3 µM)
[10]
  MIC: 128 µg/mL (≈ 229 µM)
[11]
  MIC: 64 µg/mL (≈ 114 µM)
[12]
  MIC: 16 µg/mL (≈ 28.6 µM)
[13]
  MFC: > 64 µg/mL
[14]
  MFC: > 64 µg/mL
[15]
  MIC: 2 µg/mL (≈ 3.58 µM)
[16]
  MIC: 64 µg/mL (≈ 114 µM)
[17]
  MIC: 2 µg/mL (≈ 3.58 µM)
[18]
  MFC: > 64 µg/mL
[19]
  MFC: 64 µg/mL (≈ 114 µM)
[20]
  MFC: > 64 µg/mL

## Fc1ccc(C(Cn2cnnn2)[Se]C(Cn2cnnn2)c2ccc(F)cc2)cc1 (centres undefined)
[1]
  MIC: > 64 µg/mL
[2]
  MIC: > 64 µg/mL
[3]
  MIC: > 64 µg/mL
[4]
  MIC: > 64 µg/mL
[7]
  MIC: > 64 µg/mL
[8]
  MIC: > 64 µg/mL
[9]
  MIC: 32 µg/mL (≈ 69.4 µM)
[10]
  MIC: > 64 µg/mL
[11]
  MIC: > 64 µg/mL
[12]
  MIC: > 64 µg/mL
[15]
  MIC: > 64 µg/mL
[16]
  MIC: > 64 µg/mL
[17]
  MIC: > 64 µg/mL
